The test system of the assay is rabbit platelet aggregation by PAF. Description: Inhibitory activity on rabbit platelet aggregation by PAF. The class given is cell-based. As to conditions: Oryctolagus cuniculus, PAF 1×10^-8 M, read-out: rate of inhibition of rabbit platelet aggregation by PAF; for inhibition at 30 µM: test drug 3 × 10^-5 M; for inhibition at 3 µM: test drug 3 × 10^-6 M; for inhibition at 0.3 µM: test drug 3 × 10^-7 M.

This note sets out measurements from patent US4737518A, “Lipid derivatives, their production and use” (Takeda Chemical Industries, Ltd., priority 1984, dated 1988).

Broadly, the inhibition is the change of the read-out against control, counted positive when it falls.

Consider `CCCCCCCCCCCCCCCCCCOCC(COC(=O)NCC[n+]1ccsc1)OCc1ccccc1` (stereo not drawn) [Example 8, 2-O-Benzyl-1-O-octadecyl-3-O-(2'-thiazolioethyl)carbamoylglycerol bromide], for which the inhibition at 30 µM is 100%.
On the same count and under the same terms, with `CCCCCCCCCCCCCCCCCCNC(=O)OCC(COC(=O)NCC[N+](C)(C)C)OC` (stereo not drawn) [Example 10, 2-O-Methyl-1-O-octadecylcarbamoyl-3-O-(2'-trimethylammonioethyl)carbamoylglycerol iodide] the figure was 82%.
In the case of `CCCCCCCCCCCCCCCCCCNC(=O)OCC(COC(=O)NCC[n+]1ccsc1)OC` (stereo not drawn) [Example 14, 2-O-Methyl-1-O-octadecylcarbamoyl-3-O-(2'-thiazolioethyl)carbamoylglycerol bromide], the inhibition at 30 µM was 100% and the inhibition at 3 µM was 52%.
`CCCCCCCCCCCCCCCCCCOCC(COC(=O)NCC[N+](C)(C)C)NC(C)=O` (stereo not drawn) [Example 19, 1-Octadecyloxy-2-acetamido-3-(2'-trimethylammonioethyl)carbamoyloxypropane iodide]: the inhibition at 30 µM came out at 72%.
Regarding `CCCCCCCCCCCCCCCCCCOCC(COC(=O)N(CC[N+](C)(C)C)C(C)=O)NC(C)=O` (stereo not drawn) [Example 20, 1-Octadecyloxy-2-acetamido-3-[N-acetyl-N-(2'-trimethylammonioethyl)]carbamoyloxypropane iodide], the inhibition at 30 µM was 100% and the inhibition at 3 µM came to 100%.
Turning to `CCCCCCCCCCCCCCCCCCNC(=O)OCC(COC(=O)N(CC[N+](C)(C)C)C(=O)OC)OC` (stereo not drawn) [Example 56, 2-O-Methyl-1-O-[N-methoxycarbonyl-N-(2'-trimethylammonioethyl)]carbamoyl-3-O-octadecylcarbamoylglycerol iodide], the inhibition at 30 µM came to 100% and the inhibition at 3 µM came out at 64%.
The corresponding values for `CCCCCCCCCCCCCCCCCCNC(=O)OCC(COC(=O)N(CC[N+](C)(C)C)C(=O)N(C)C)OC` (stereo not drawn) [Example 62, 1-O-[N-Dimethylcarbamoyl-N-(2'-trimethylammonioethyl)]carbamoyl-2-O-methyl-3-O-octadecylcarbamoylglycerol iodide] are 100% and 34%.
As to `CCCCCCCCCCCCCCCCCCOCC(Cn1ccc(=O)n(CC[N+](C)(C)C)c1=O)OC(C)=O` (stereo not drawn) [Example 102, 1-(2-Acetyloxy-3-octadecyloxy)propyl-3-(2-trimethylammonioethyl)urasil chloride], the inhibition at 30 µM was determined as 100% and the inhibition at 3 µM was determined as 100%. Also, the inhibition at 1 µM (test drug 1 × 10^-6 M) is 72%.
In the case of `CCCCCCCCCCCCCCCCCCNC(=O)OCC(CN1CC(=O)N(CC[n+]2ccsc2)C1=O)OC` (stereo not drawn) [Example 110, 1-[(2-methoxy-3-octadecylcarbamoyloxy)propyl]-3-(2-thiazolioethyl)hydantoinchloride], the inhibition at 30 µM was 100%, the inhibition at 3 µM was 100% and the inhibition at 0.3 µM was determined as 34%.
With `CCCCCCCCCCCCCCCCCCNC(=O)OCC(Cn1ccc(=O)n(CC[N+](C)(C)C)c1=O)OC` (stereo not drawn) [Example 136, N-[2-{1-(3-Octadecylcarbamoyloxy-2-methoxypropyl)uracil-3-yl}ethyl]-N,N,N-trimethylammonium chloride], the inhibition at 30 µM turned out to be 100%, the inhibition at 3 µM stood at 100% and the inhibition at 0.3 µM is 11%.
For `CCCCCCCCCCCCCCCCCCNC(=O)OCC(COC(=O)NCc1scc[n+]1C)OC` (stereo not drawn) [Example 140, 2-[N-(3-Octadecylcarbamoyloxy-2-methoxypropoxycarbonyl)amino]methyl-3-methylthiazolium iodide], the inhibition at 30 µM came to 100%, the inhibition at 3 µM was 100% and the inhibition at 0.3 µM amounted to 100%. Further, the inhibition at 0.03 µM (test drug 3 × 10^-8 M) came to 18%.
